Like-named read-outs stand apart in the source and are kept apart here.
Molecular target: T1, rPpAChE1 (recombinant acetylcholinesterase of P. papatasi) (Phlebotomus papatasi, UniProt M1F887)
T1 construct: gene AChE
Experiment: residual AChE activity from initial velocities
Assay type: biochemical
From the text: residual AChE activity from initial velocities on rPpAChE1 (recombinant acetylcholinesterase of P. papatasi)

T1 sequence (M1F887 41-710): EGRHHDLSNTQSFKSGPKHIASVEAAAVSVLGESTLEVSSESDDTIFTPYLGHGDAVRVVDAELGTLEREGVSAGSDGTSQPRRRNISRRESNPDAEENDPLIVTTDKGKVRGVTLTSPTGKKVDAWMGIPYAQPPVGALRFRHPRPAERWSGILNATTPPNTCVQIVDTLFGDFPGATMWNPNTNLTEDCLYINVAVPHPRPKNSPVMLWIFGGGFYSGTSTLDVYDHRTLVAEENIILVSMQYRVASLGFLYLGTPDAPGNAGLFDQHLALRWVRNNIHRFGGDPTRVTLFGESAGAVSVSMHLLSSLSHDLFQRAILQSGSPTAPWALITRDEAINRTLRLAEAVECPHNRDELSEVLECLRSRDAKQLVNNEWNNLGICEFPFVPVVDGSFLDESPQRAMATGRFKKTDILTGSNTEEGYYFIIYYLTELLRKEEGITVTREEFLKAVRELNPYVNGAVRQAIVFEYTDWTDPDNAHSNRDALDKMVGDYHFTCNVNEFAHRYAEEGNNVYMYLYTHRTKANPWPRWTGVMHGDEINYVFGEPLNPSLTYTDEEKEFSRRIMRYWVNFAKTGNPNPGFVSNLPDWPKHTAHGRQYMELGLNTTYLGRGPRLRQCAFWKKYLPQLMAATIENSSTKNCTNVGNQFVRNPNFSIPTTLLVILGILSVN

CCN(CC)C(=O)c1cccc(C)c1 [DEET, N,N-diethyl-m-toluamide]
remaining activity at 1000 µM (read-out: % Residual rPpAChE1 Activity (Compared to No Inhibitor) ± Std. Dev. ^* / DEET): 93.2 ± 1.4%

CCCCN(CCC(=O)OCC)C(C)=O [IR3535]
remaining activity at 1000 µM (read-out: % Residual rPpAChE1 Activity (Compared to No Inhibitor) ± Std. Dev. ^* / IR3535): 104 ± 5%

CCCCCCCCC(=O)O [Nonanoic acid]
remaining activity at 1000 µM (read-out: % Residual rPpAChE1 Activity (Compared to No Inhibitor) ± Std. Dev. ^* / Nonanoic Acid): 96 ± 2.3%

CCCCCCCCCCC(=O)O [Undecanoic acid]
remaining activity at 1000 µM (read-out: % Residual rPpAChE1 Activity (Compared to No Inhibitor) ± Std. Dev. ^* / Undecanoic Acid): 98.2 ± 0.4%

From PMC10970923, “In Vitro Evaluation of Essential Oils and Saturated Fatty Acids for Repellency against the Old-World Sand Fly, Phlebotomus papatasi (Scopoli) (Diptera: Psychodidae)” (Insects, 2024)
